Measured values reported in patent publication US20210244735A1, “COMPOSITIONS AND METHODS FOR TREATING MYELOFIBROSIS” (Impact Biomedicines, Inc., priority 2010, published 2021).
Structures can show the parent of a compound that is named as a salt. Where two headings read alike, the source gives them in different places.

System: subjects with MF
Details: for discontinuation: adverse event: number of subjects
[1] = at least possibly related, All Subjects (n=59)
[2] = at least possibly related, All Subjects, not transfusion dependent at study entry (n=37)
[3] = at least possibly related, MTD Cohort (n=40)
[4] = at least possibly related, MTD Cohort, not transfusion dependent at study entry (n=24)
[5] = at least possibly related, MTD cohort
[6] = at least possibly related, overall
[7] = number of patients who started at ≥680 mg

Cc1cnc(Nc2ccc(OCCN3CCCC3)cc2)nc1Nc1cccc(S(=O)(=O)NC(C)(C)C)c1 [TG101348, N-tert-butyl-3-[(5-methyl-2-{[4-(2-pyrrolidin-1-ylethoxy)phenyl]amino}pyrimidin-4-yl)amino]benzenesulfonamide dihydrochloride monohydrate]
patients who discontinued treatment due to toxicity (59 patients, median follow-up 12 weeks): 7 | subjects with serious adverse events considered at least possibly related (MF-TG101348-001 and -002): 8 subjects | Grades 3/4 asymptomatic increase in ALT (MTD cohort): 8% | Grades 3/4 asymptomatic increase in AST (MTD cohort): 3% | Grades 3/4 asymptomatic increase in alkaline phosphatase (MTD cohort): 0% | Grades 3/4 asymptomatic increase in creatinine (MTD cohort): 0% | Grades 3/4 asymptomatic increase in serum lipase (MTD cohort): 15% | subjects who required dose-reduction during the first 6 cycles (MTD cohort (n=40)): 70% | Anemia: New Transfusion Requirement on Study (MTD subjects not transfusion dependent at baseline (N=24), transfusion on at least 2 occasions for Hb <10 g/dL): 16 (67%) subjects (%) | maximum tolerated dose (MTD) (Phase I, myelofibrosis): 680 mg | Grade 3/4 neutropenia (all patients, Example 1 data): 14 % of patients | Grade 3/4 thrombocytopenia (all patients, Example 1 data): 25 % of patients | Grade 3/4 neutropenia considered related (all subjects): 10% | Grade 3/4 thrombocytopenia considered related (all subjects): 24% | Abdominal pain, Severity Grade 1- [1]: 6 (10.2%) subjects (%) | Abdominal pain, Severity Grade 3-4 [1]: 0 subjects (%) | Alanine aminotransferase increased, Severity Grade 1- [1]: 11 subjects (%) | Alanine aminotransferase increased, Severity Grade 3-4 [1]: 4 (6.8%) subjects (%) | Anorexia, Severity Grade 1- [1]: 8 (13.6%) subjects (%) | Anorexia, Severity Grade 3-4 [1]: 0 subjects (%) | Aspartate aminotransferase increased, Severity Grade 1- [1]: 15 subjects (%) | Aspartate aminotransferase increased, Severity Grade 3-4 [1]: 1 (1.7%) subjects (%) | Blood alkaline phosphatase increased, Severity Grade 1- [1]: 10 subjects (%) | Blood alkaline phosphatase increased, Severity Grade 3-4 [1]: 0 subjects (%) | Blood creatinine increased, Severity Grade 1- [1]: 14 subjects (%) | Blood creatinine increased, Severity Grade 3-4 [1]: 0 subjects (%) | Diarrhea, Severity Grade 1- [1]: 32 subjects (%) | Diarrhea, Severity Grade 3-4 [1]: 6 (10.2%) subjects (%) | Dry skin, Severity Grade 1- [1]: 6 (10.2%) subjects (%) | Dry skin, Severity Grade 3-4 [1]: 0 subjects (%) | Edema peripheral, Severity Grade 1- [1]: 6 (10.2%) subjects (%) | Edema peripheral, Severity Grade 3-4 [1]: 0 subjects (%) | Hyperlipasemia, Severity Grade 1- [1]: 10 subjects (%) | Hyperlipasemia, Severity Grade 3-4 [1]: 6 (10.2%) subjects (%) | Hypocalcemia, Severity Grade 1- [1]: 7 (11.9%) subjects (%) | Hypocalcemia, Severity Grade 3-4 [1]: 1 (1.7%) subjects (%) | Nausea, Severity Grade 1- [1]: 39 subjects (%) | Nausea, Severity Grade 3-4 [1]: 2 (3.4%) subjects (%) | Neutropenia, Severity Grade 1-2 [1]: 2 (3.4%) subjects (%) | Neutropenia, Severity Grade 3-4 [1]: 6 (10.2%) subjects (%) | Skin exfoliation, Severity Grade 1- [1]: 8 (13.6%) subjects (%) | Skin exfoliation, Severity Grade 3-4 [1]: 0 subjects (%) | Thrombocytopenia, Severity Grade 1-2 [1]: 10 (17.0%) subjects (%) | Thrombocytopenia, Severity Grade 3-4 [1]: 14 (23.7%) subjects (%) | Vomiting, Severity Grade 1- [1]: 32 subjects (%) | Vomiting, Severity Grade 3-4 [1]: 2 (3.4%) subjects (%) | Anemia, Severity Grade 1-2 [2]: 3 (8.1%) subjects (%) | Anemia, Severity Grade 3-4 [2]: 13 (35.1%) subjects (%) | Abdominal pain, Severity Grade 1-2 [3]: 4 (10.0%) subjects (%) | Abdominal pain, Severity Grade 3- [3]: 0 subjects (%) | Alanine aminotransferase increased, Severity Grade 1-2 [3]: 9 (22.5%) subjects (%) | Alanine aminotransferase increased, Severity Grade 3- [3]: 3 (7.5%) subjects (%) | Anorexia, Severity Grade 1-2 [3]: 6 (15.0%) subjects (%) | Anorexia, Severity Grade 3- [3]: 0 subjects (%) | Aspartate aminotransferase increased, Severity Grade 1-2 [3]: 13 subjects (%) | Aspartate aminotransferase increased, Severity Grade 3- [3]: 1 (2.5%) subjects (%) | Blood alkaline phosphatase increased, Severity Grade 1-2 [3]: 9 (22.5%) subjects (%) | Blood alkaline phosphatase increased, Severity Grade 3- [3]: 0 subjects (%) | Blood creatinine increased, Severity Grade 1-2 [3]: 11 subjects (%) | Blood creatinine increased, Severity Grade 3- [3]: 0 subjects (%) | Diarrhea, Severity Grade 1-2 [3]: 25 subjects (%) | Diarrhea, Severity Grade 3- [3]: 5 subjects (%) | Dry skin, Severity Grade 1-2 [3]: 6 (15%) subjects (%) | Dry skin, Severity Grade 3- [3]: 0 subjects (%) | Edema peripheral, Severity Grade 1-2 [3]: 4 (10.0%) subjects (%) | Edema peripheral, Severity Grade 3- [3]: 0 subjects (%) | Hyperlipasemia, Severity Grade 1-2 [3]: 9 (22.5%) subjects (%) | Hyperlipasemia, Severity Grade 3- [3]: 6 subjects (%) | Hypocalcemia, Severity Grade 1-2 [3]: 6 (15.0%) subjects (%) | Hypocalcemia, Severity Grade 3- [3]: 1 (2.5%) subjects (%) | Nausea, Severity Grade 1-2 [3]: 31 subjects (%) | Nausea, Severity Grade 3- [3]: 2 (5.0%) subjects (%) | Neutropenia, Severity Grade 1-2 [3]: 2 (5.0%) subjects (%) | Neutropenia, Severity Grade 3-4 [3]: 4 (10.0%) subjects (%) | Skin exfoliation, Severity Grade 1-2 [3]: 8 (20.0%) subjects (%) | Skin exfoliation, Severity Grade 3- [3]: 0 subjects (%) | Thrombocytopenia, Severity Grade 1-2 [3]: 8 (20.0%) subjects (%) | Thrombocytopenia, Severity Grade 3-4 [3]: 11 (27.5%) subjects (%) | Vomiting, Severity Grade 1-2 [3]: 27 subjects (%) | Vomiting, Severity Grade 3- [3]: 1 (2.5%) subjects (%) | Anemia, Severity Grade 1-2 [4]: 2 (8.3%) subjects (%) | Anemia, Severity Grade 3-4 [4]: 13 (54.2%) subjects (%) | grade 3 diarrhea [5]: 13 % of subjects | grade 3 nausea [5]: 5 % of subjects | grade 3 vomiting [5]: 3 % of subjects | grade 3 diarrhea [6]: 10 % of subjects | grade 3 nausea [6]: 3 % of subjects | grade 3 vomiting [6]: 3 % of subjects | subjects discontinued because of adverse events (extension study, 43 subjects, after 24 to 46 weeks on therapy): 3 | subjects discontinued for treatment-related adverse events (first 6 cycles of therapy, 59 subjects): 6 | diarrhea Gr3 [7]: 3 | nausea Gr3 [7]: 1 | vomiting Gr3 [7]: 1 | discontinuation: adverse event (MTD (initiated at 680 or 800 mg/day), 40 enrolled): 5 | discontinuation: adverse event (Overall, 59 enrolled): 6 | Grade 3/4 anemia considered related (of 37 subjects who were not transfusion dependent at baseline): 35% | maximum tolerated dose (MTD) (oral once daily, dose cohorts 30 to 800 mg per day): 680 mg/day | Grades 3/4 asymptomatic increase in ALT (overall): 7% | Grades 3/4 asymptomatic increase in AST (overall): 2% | Grades 3/4 asymptomatic increase in alkaline phosphatase (overall): 0%
